Test results from patent US20080214542A1, “Arylpiperazine Derivatives and their Use as Selective Dopamine D3 Receptor Ligands” (BIOPROJET, priority 2004, published 2008).
Counter-ions that a name gives are not always drawn.

biological target: human dopamine D3 receptor (hD3) (Homo sapiens, UniProt P35462); experiment: Binding of [3H]spiperone to membranes of CHO cells transfected with the human dopamine D3 receptor; conditions: binding of [3H]spiperone (0.5 to 2 nM), hD3-transfected CHO cell membranes, 60 minutes at ambient temperature; read-out: hD3 Ki
Protocol: Biological Results: Determination of the Affinity of the Compounds for the Human Dopamine D3 Receptor
Binding of [^3H]spiperone:
CHO cells were transfected by the gene coding for the human dopamine D3 receptor (hD3). The binding of [^3H]spiperone (0.5 to 2 nM) takes place in the presence of 5 to 10 μg of membranous proteins in a medium containing 120 mM NaCl, 5 mM KCl, and 50 mM Tris HCL pH 7.4; an incubation of 60 minutes at ambient temperature is necessary. The non-specific binding is estimated in the presence of 5 μM of haloperidol. The non-transfected cells are devoid of any binding activity.

human dopamine D3 receptor (hD3), sequence (P35462 whole entry): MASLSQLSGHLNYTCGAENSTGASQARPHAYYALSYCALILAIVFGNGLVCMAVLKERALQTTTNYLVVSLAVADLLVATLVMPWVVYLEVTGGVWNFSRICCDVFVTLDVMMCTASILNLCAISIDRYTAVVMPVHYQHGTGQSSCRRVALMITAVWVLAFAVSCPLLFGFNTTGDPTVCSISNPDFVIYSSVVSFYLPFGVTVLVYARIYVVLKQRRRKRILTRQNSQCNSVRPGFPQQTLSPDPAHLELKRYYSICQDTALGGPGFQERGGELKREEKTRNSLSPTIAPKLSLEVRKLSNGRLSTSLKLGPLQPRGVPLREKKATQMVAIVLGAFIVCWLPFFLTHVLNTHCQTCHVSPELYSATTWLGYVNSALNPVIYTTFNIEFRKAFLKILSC

Structure (SMILES) | Ki
COc1ccc2c(c1)CN(C(=O)CCCCCN1CCN(c3cccc(C(F)(F)F)c3)CC1)C2 [Example 1, 1-(5-methoxyisoindolin-2-yl)-6-[4-(3-trifluoromethylphenyl)piperazin-1-yl]hexan-1-one] | 0.9 nM
O=C(CCCCCN1CCN(c2cccc(C(F)(F)F)c2)CC1)N1Cc2ccc(F)cc2C1 [Example 7, 1-(5-fluoroisoindolin-2-yl)-6-[4-(3-trifluoromethylphenyl)piperazin-1-yl]hexan-1-one] | 1.05 nM
COC(=O)c1ccc2c(c1)CN(C(=O)CCCCCN1CCN(c3cccc(C(F)(F)F)c3)CC1)C2 [Example 12, 1-(5-methoxycarbonylisoindolin-2-yl)-6-[4-(3-trifluoromethylphenyl)piperazin-1-yl]hexan-1-one hydrochloride] | 0.85 nM
O=C(CCCCCN1CCN(c2cccc(C(F)(F)F)c2)CC1)N1Cc2ccc(OCCCN3CCCCC3)cc2C1 [Example 24, 1-[5-(3-piperidinopropoxy)isoindolin-2-yl]-6-[4-(3-trifluoromethylphenyl)piperazin-1-yl]hexan-1-one] | 1.21 nM
O=C(CCCCCN1CC=C(c2cccc(C(F)(F)F)c2)CC1)N1Cc2ccccc2C1 [Example 50, 1-isoindolin-2-yl-6-[4-(3-trifluoromethylphenyl)-3,6-dihydro-2H-pyridin-1-yl]hexan-1-one] | 0.93 nM

Further lines, results first:

Ki | Structure (SMILES)
2.6 nM | N#Cc1ccc2c(c1)CN(C(=O)CCCCCN1CCN(c3cccc(C(F)(F)F)c3)CC1)C2 [Example 3, 1-(5-cyanoisoindolin-2-yl)-6-[4-(3-trifluoromethylphenyl)piperazin-1-yl]-hexan-1-one hydrochloride]
1.17 nM | O=C(CCCCCN1CCN(c2cccc(C(F)(F)F)c2)CC1)N1Cc2cc3c(cc2C1)OCO3 [Example 10, 1-(6,7-dihydro-5H-[1,3]dioxolo[4,5-f]isoindol-6-yl)-6-[4-(3-trifluoromethylphenyl)piperazin-1-yl]hexan-1-one]
0.84 nM | O=C(CCCCCN1CCN(c2cccc3c2CCCC3)CC1)N1Cc2ccccc2C1 [Example 38, 1-isoindolin-2-yl-6-[4-(5,6,7,8-tetrahydro-naphthalen-1-yl)piperazin-1-yl]hexan-1-one]
19.7 nM | O=C(CCCCCN1CCC(c2cccc(C(F)(F)F)c2)CC1)N1Cc2ccccc2C1 [Example 51, 1-isoindolin-2-yl-6-[4-(3-trifluoromethyl-phenyl)-piperidin-1-yl]hexan-1-one]

same assay, conditions: comparative example, affinity for the dopamine D3 receptor; read-out: Ki

Ki | Structure (SMILES)
321 nM | O=C(CCCCCN1CCN(c2cccc(F)c2)CC1)N1Cc2ccccc2C1 [reference compound]
